According to patent US20190071416A1, “COMPOUNDS FOR TREATMENT OF CANCER AND EPIGENETICS” (Agency For Science, Technology and Research, priority 2015, published 2019):
Where two headings read alike, the source gives them in different places.

How the values were obtained:
[1] = system: MAP3K2 methylation (me2/me3-Lys 260); assay: SMYD3 mediated methylation of MAP3K2 in HEK293 cells (Western blot); type: cell-based, Human; conditions: 25 μM
Method: (§1) The cells were seeded in 6 well plates. After seeding for 24 h, the cells were treated with either DMSO or 25 μM compound and incubated for 24 hr. The cells were trypsinized and the lysate was extracted with RIPA buffer (Santa Cruz). The total protein concentration of lysate is quantified using the standard Bradford assay (Biorad protein assay, microplate standard assay).
Western blot analysis for detecting methylated MAP3K2 was carried out using a customized Anti-me2/me3-Lys 260 MAP3K2 at 1:500 and the total MAP3K2 was detected using Anti-MEKK2 (AB33918) using a 1:10,000 dilution.
B019 was further tested for its ability to inhibit SMYD3 in cells through its effects on cellular MAP3K2 methylation. This was performed using an antibody against the MAP3K2 (me2/me3), Anti-ME2/ME3-K260-MAP3K2 (1:500) and total MAP3K2, Anti-MEKK2 #ab33918 (1:10,000).

[2] = target: T1, SMYD3 (Homo sapiens, UniProt Q9H7B4); assay: Target engagement assay, SMYD3 levels by Western blot in HEK293 cells transfected with Myc-SMYD3; type: cell-based; parameters: host or cells: HEK293 (ATCC); conditions: 25 μM, overnight, HEK293 transiently transfected with Myc-tagged SMYD3
T1 sequence (Q9H7B4 1-428): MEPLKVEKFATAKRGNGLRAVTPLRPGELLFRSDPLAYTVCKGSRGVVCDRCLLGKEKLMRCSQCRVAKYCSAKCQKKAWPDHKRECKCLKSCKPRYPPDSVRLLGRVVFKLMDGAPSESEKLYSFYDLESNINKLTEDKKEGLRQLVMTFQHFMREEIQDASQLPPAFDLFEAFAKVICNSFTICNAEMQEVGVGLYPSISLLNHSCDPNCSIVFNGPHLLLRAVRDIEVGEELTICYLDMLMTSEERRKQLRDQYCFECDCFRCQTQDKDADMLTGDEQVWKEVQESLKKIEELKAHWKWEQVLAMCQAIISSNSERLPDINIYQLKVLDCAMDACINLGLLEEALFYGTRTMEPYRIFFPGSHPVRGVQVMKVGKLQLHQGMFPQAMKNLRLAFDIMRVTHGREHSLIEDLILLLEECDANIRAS
Method: The target engagement assay was performed with HEK293 that is engineered to overexpress SMYD3 (HEK293-SMYD3). The plasmid SMYD3 (Myc-DDK-tagged-Human SET and MYND domain containing 3) was purchased from Origene (RC230064) and transfected with lipofectamine 2000 (Invitrogen) into HEK293 (ATCC). The cell line is cultured in Eagle's MEM media supplemented with fetal bovine serum and geneticin (Invitrogen). Presence of over-expressed SMYD3 is confirmed with western blot with antibody against SMYD3 and the MYC tag as well as with RT-PCR with SMYD3 primers.
as §1
Western blot analysis was performed using antibody against SMYD3 in HEK293 cells over-expressing SMYD3 (HEK293-SMYD3) treated with compound at different time points. 15.0 μg of cell lysate was diluted in 2× Laemmli sample buffer (Bio-Rad) and boiled at 100° C. on heat block for 5 min. Lysates were separated using NuPAGE® 4-12% Bis-Tris precast polyacrylamide gels (Lifetech) at 200 V, […] for 40 min. […]

[3] = system: HepG2; assay: Cell proliferation assay (CellTiter-Glo), HepG2; type: cell-based; conditions: Homo sapiens, HepG2, 72 h; 3 days
Method: The cell proliferation assays were tested in several cell lines, including HepG2,HCT116, A549, HPAF-II, CFPAC-1,HuH7, SNU398,Hep3B, and HEK293. All cell lines are from ATCC. HepG2, HPAF-II and HEK293 are cultured in Eagle's MEM media supplemented with fetal bovine serum. HCT116 is cultured in McCoy media supplemented with fetal bovine serum. Huh-7 is cultured in DMEM low glucose (1000 mg/L glucose) with 10% FBS, 1% L-Glutamate and 1% Penicillin/Streptomycin. SNU398 is cultured in RPMI with 10% FBS with 1% L-Glutamate and 1% Penicillin/Streptomycin. Hep3B is cultured in Eagle's MEM with 10% FBS, 1% L-Glutamate and 1% Penicillin/Streptomycin. A549 is cultured in RPMI media supplemented with fetal bovine serum while CFPAC-1 is cultured in IMDM media supplemented with fetal bovine serum. All media and serum are purchased from Gibco (Lifetech). All cells were grown in a temperature controlled incubator at 37° C. and 5% CO2.
Cell proliferation assay was performed using CellTiter-Glo Luminescent Cell Viability Assay (Promega) following manufacturer's instructions. The cell-line of interest was treated with compounds that were serial diluted in its respective media. Plates were incubated for 3 days at 37° C. in 5% CO2. After 3 days, an equal volume of Cell Titer Glo reagent was added. Plates were rocked on a rotator for 2 h. 100 μL of each well were transferred to a 96-well opaque plate, and luminescence emitted was measured with the Tecan Safire II.

[4] = target: T1, SMYD3; assay: SMYD3 biochemical assay (MTase-Glo, MAP3K2 peptide substrate)
Procedure, shortened: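 Methylation of MAP3K2 peptide (10 µM final) with SAM (1.0 µM final) by SMYD3, 30 min at room temperature. SAH formed was enzymatically converted to ATP and detected as luminescence with MTase-Glo reagents; IC50 by non-linear regression.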

reduction in SMYD3 levels [2]: 35-37%
GI50 [3]: 18800 nM
IC50 ([4]; Table 1, MAP3K2 peptide as substrate, read-out: IC50): 59.5 nM
IC50 ([4]; Table 2, read-out: Biochemical assay IC50): 59.5 nM
IC50 ([4]; Table 3, MTase assay, MAP3K2 peptide substrate, read-out: IC50): 60 nM
SMILES: CCCOC(=O)N1CCN(C(=O)c2ccc3c(Cl)cc(-c4ccccc4)nc3c2)C[C@H]1C [B019, Propyl (R)-4-(4-chloro-2-phenylquinoline-7-carbonyl)-2-methylpiperazine-1-carboxylate]
inhibition of methylation of MAP3K2 in cells [1]: inhibited
total MAP3K2 levels [1]: without changing
